Six compounds from US20110256298A1, “BEER AND BEER-BASED BEVERAGES AND METHOD OF MODIFICATION OF POLYPHENOLS AND SILICON CONTENT IN THESE BEVERAGES” (priority 2009, published 2011) can be followed below.

One data set can be described thus: physchem. Format: physicochemical. The settings on record: for solubility thermodynamic: aqueous with cosolvent or surfactant or cyclodextrin, thermodynamic from solid. The source says: The equilibrium solubility of silymarin in two kinds of beer after the addition of the water-soluble mixture with the Silybum marianum polyphenols according to example 1 are shown in the following table: […]

The nature of data set [1]: Total amount of Silybum marianum polyphenols in bottled beer by HPLC. Format: physicochemical. The settings on record: example 1 mixture dosed at 100 mg silymarin per liter; for Content in DIA beer: bottled DIA beer; for Content in PILS 12% beer: bottled PILS 12% beer; for Content in Non-alcoholic beer: bottled non-alcoholic beer. How it is done: The total amount of Silybum marianum polyphenols in beers was determined by HPLC in bottled beer as a sum of silymarin components.

≈ marks a conversion by molar mass, not a printed value.

As to `COc1cc([C@@H]2Oc3cc([C@H]4Oc5cc(O)cc(O)c5C(=O)[C@@H]4O)ccc3O[C@H]2CO)ccc1O` [Silybin B], in the data set “physchem”, the “equilibrium solubility in Lager Radegast Premium” value is 85.18 µg/mL and the “equilibrium solubility in Non-alcoholic Radegast Birell” value stood at 75.70 µg/mL. For the same compound, in data set [1], the “Content in DIA beer” value came out at 15.4 mg/L, the “Content in PILS 12% beer” value amounted to 28.4 mg/L and the “Content in Non-alcoholic beer” value was found to be 29.4 mg/L.

As for Isosilybin A + B, in “physchem”, the “equilibrium solubility in Lager Radegast Premium” value amounted to 54.33 µg/mL and the “equilibrium solubility in Non-alcoholic Radegast Birell” value amounted to 48.22 µg/mL. In data set [1], the “Content in DIA beer” value stood at 20.9 mg/L, the “Content in PILS 12% beer” value amounted to 15.3 mg/L and the “Content in Non-alcoholic beer” value was 12.5 mg/L.

Regarding `COc1cc([C@H]2Oc3cc([C@H]4Oc5cc(O)cc(O)c5C(=O)[C@@H]4O)ccc3O[C@@H]2CO)ccc1O` [Silybin A], in “physchem”, the “equilibrium solubility in Lager Radegast Premium” value was 43.03 µg/mL and the “equilibrium solubility in Non-alcoholic Radegast Birell” value was determined as 38.22 µg/mL. In data set [1], the “Content in DIA beer” value was 5.7 mg/L, the “Content in PILS 12% beer” value was found to be 15.1 mg/L and the “Content in Non-alcoholic beer” value turned out to be 11.5 mg/L.

With silymarin, in “physchem”, the “equilibrium solubility in Lager Radegast Premium” value came to 436.17 µg/mL and the “equilibrium solubility in Non-alcoholic Radegast Birell” value worked out at 400.31 µg/mL.

`COc1cc([C@@H]2[C@H]3CO[C@@]4(O)C(=O)[C@@H]2C=C([C@H]2Oc5cc(O)cc(O)c5C(=O)[C@@H]2O)[C@@H]34)ccc1O` [Silydianin]: the thermodynamic solubility stood at 66.1 µg/mL (≈ 137 µM) in “physchem” (equilibrium solubility in Lager Radegast Premium) and 61.7 µg/mL (≈ 128 µM) in “physchem” (equilibrium solubility in Non-alcoholic Radegast Birell).

Take `COc1cc([C@@H]2Oc3c(O)cc([C@H]4Oc5cc(O)cc(O)c5C(=O)[C@@H]4O)cc3[C@H]2CO)ccc1O` [Silychristin]: in the data set “physchem”, the “equilibrium solubility in Lager Radegast Premium” value was determined as 187.51 µg/mL and the “equilibrium solubility in Non-alcoholic Radegast Birell” value came out at 176.46 µg/mL. Besides, in data set [1], the “Content in DIA beer” value worked out at 32.7 mg/L, the “Content in PILS 12% beer” value amounted to 42.1 mg/L and the “Content in Non-alcoholic beer” value was 40.5 mg/L.

As usually defined, the solubility (thermodynamic) is solubility found after equilibrating the solid with the medium.
